Test results from US5023271A, “Pharmaceutical microemulsions” (priority 1985, dated 1991).

Legend:
[1] = cited from earlier work
[2] = tested on: lipoprotein components of human serum; test: In vitro transfer of tocopherol from microemulsion to human serum lipoproteins (sodium chloride gradient); conditions: 100 μl microemulsion of Example 1 + 900 μl saline, 1 hr, 37°
Description: The diffusion of tocopherol in the mixtures was compared with the distribution of lipoproteins in the same mixtures and with the distribution of tocopherol from the untreated emulsion.
For a control, 100 μl of the microemulsion were incubated with 900 μl of saline solution under the same conditions. Each mixture was underlayered in a sodium chloride gradient and separated by ultracentrifugation according to Foreman, et al, J Lipid Research (1977) 18:759-767. The fractions of various densities were collected and each fraction was assayed for the content of tocopherol, tocopherol acetate, and cholesterol. The microemulsion alone mixed with saline gives a single peak for tocopherol at a density of approximately 1.018 g/ml. […] The treatment of microemulsion with serum effects the transfer of the tocopherol to serum in conjunction with the lipoprotein content thereof.

lipoprotein fractions = test: Distribution of injected α-tocopherol and tocopherol acetate among serum lipoprotein fractions of rabbits
Description: The serum samples were also layered under a sodium chloride gradient and centrifuged. The distribution of the injected α-tocopherol and tocopherol acetate among the lipoprotein fractions was assessed.

[3] = Long term daily injection to rabbits, serum samples at 1 week intervals; conditions: 1 ml preparation of Example 1 daily for 30 days
Description: New Zealand male rabbits were injected daily with 1 ml doses of the preparation of Example 1 for 30 days.

[4] = Short term serum and tissue levels after intravenous injection to rabbits
Description: (§1) The rabbits were then sacrificed and the tissues analyzed for their content of tocopherol and tocopherol acetate.

[5] = Serum and liver extract levels in rats after IV injection; conditions: 1 ml preparation of Example 1 IV
Description: The animals were sacrificed at 15 minute intervals for the first hour, after two hours, and then after 1, 3, 5, and 10 days. The levels of α-tocopherol and tocopherol acetate were assayed in the sera and liver extracts.

in vivo = conditions: rabbit, iv, 15 mL/animal
Description: as §1

Row | Compound | adverse outcome of oral administration ([1]; in vivo, po) | adverse outcome of intravenous administration ([1]; intravenous, premature infants) | density of the tocopherol peak, microemulsion mixed with saline (control) [2] | distribution among lipoprotein fractions after injection (lipoprotein fractions; rabbit, in vivo, iv) | serum tocopherol acetate [3] | α-tocopherol acetate in circulation by the end of 4 hr ([4]; 15 ml preparation of Example 1 i.v., 4 hr) | α-tocopherol acetate in liver, spleen, and other tissues ([4]; after 4 hr) | hydrolysis of tocopherol acetate in liver [5] | distribution among lipoprotein fractions after injection (lipoprotein fractions; preparation of Example 1 i.v., serum samples on sodium chloride gradient) | concentration at 5 min (in vivo) [µg/mL]
1 | Cc1c(C)c2c(c(C)c1O)CCC(C)(CCCC(C)CCCC(C)CCCC(C)C)O2 (racemic) [α-tocopherol] | gastrointestinal problems | implicated in several neonatal deaths | approximately 1.018 g/ml | transferred, apparently to the LDL fraction, in exchange for cholesterol |  |  |  |  |  | 
2 | CC(=O)Oc1c(C)c(C)c2c(c1C)CCC(C)(CCC[C@H](C)CCC[C@H](C)CCCC(C)C)O2 (stereo partly drawn) [tocopherol acetate, α-tocopherol (dl) acetate] |  |  |  |  | No tocopherol acetate was detectable | finally disappearing from the circulation by the end of the 4 hr period | no α-tocopherol acetate could be detected | completely hydrolyzed after approximately two hours | remained mainly at the density of the microemulsion alone | 280
